Assay results from US10668067B2, “Pyridine sulfonamides” (AMGEN INC., priority 2016, dated 2020).

Biological target: human Nav1.7 (Homo sapiens (Human), UniProt Q15858)
Experiment: Nav 1.7 In Vitro PX Assay (PatchXpress whole cell voltage clamp)
Assay type: cell-based
Conditions: in-vitro Nav 1.7 PX data
Description: HEK 293 cells stably transfected with human Nav1.7 were recorded in whole cell voltage clamp mode with the PatchXpress automated electrophysiology system (Molecular Devices, LLC, Sunnyvale, Calif.). Compound effects were measured on a partially inactivated state of the sodium channel. Cells were clamped to a holding potential yielding 20 to 50% inactivation. To elicit sodium current, channels were activated by pulsing to −10 mV for 20 msec. This voltage protocol was repeated at a rate of 0.1 Hz throughout the experiment. A single concentration of test compound was applied to cells for a duration of 3 minutes. Peak sodium current was measured at the end of the compound addition period to determine percent inhibition. Three to five cells were tested per concentration, and IC50 curves were fitted to percent inhibition as a function of concentration.

Chain of human Nav1.7 (Q15858 whole entry): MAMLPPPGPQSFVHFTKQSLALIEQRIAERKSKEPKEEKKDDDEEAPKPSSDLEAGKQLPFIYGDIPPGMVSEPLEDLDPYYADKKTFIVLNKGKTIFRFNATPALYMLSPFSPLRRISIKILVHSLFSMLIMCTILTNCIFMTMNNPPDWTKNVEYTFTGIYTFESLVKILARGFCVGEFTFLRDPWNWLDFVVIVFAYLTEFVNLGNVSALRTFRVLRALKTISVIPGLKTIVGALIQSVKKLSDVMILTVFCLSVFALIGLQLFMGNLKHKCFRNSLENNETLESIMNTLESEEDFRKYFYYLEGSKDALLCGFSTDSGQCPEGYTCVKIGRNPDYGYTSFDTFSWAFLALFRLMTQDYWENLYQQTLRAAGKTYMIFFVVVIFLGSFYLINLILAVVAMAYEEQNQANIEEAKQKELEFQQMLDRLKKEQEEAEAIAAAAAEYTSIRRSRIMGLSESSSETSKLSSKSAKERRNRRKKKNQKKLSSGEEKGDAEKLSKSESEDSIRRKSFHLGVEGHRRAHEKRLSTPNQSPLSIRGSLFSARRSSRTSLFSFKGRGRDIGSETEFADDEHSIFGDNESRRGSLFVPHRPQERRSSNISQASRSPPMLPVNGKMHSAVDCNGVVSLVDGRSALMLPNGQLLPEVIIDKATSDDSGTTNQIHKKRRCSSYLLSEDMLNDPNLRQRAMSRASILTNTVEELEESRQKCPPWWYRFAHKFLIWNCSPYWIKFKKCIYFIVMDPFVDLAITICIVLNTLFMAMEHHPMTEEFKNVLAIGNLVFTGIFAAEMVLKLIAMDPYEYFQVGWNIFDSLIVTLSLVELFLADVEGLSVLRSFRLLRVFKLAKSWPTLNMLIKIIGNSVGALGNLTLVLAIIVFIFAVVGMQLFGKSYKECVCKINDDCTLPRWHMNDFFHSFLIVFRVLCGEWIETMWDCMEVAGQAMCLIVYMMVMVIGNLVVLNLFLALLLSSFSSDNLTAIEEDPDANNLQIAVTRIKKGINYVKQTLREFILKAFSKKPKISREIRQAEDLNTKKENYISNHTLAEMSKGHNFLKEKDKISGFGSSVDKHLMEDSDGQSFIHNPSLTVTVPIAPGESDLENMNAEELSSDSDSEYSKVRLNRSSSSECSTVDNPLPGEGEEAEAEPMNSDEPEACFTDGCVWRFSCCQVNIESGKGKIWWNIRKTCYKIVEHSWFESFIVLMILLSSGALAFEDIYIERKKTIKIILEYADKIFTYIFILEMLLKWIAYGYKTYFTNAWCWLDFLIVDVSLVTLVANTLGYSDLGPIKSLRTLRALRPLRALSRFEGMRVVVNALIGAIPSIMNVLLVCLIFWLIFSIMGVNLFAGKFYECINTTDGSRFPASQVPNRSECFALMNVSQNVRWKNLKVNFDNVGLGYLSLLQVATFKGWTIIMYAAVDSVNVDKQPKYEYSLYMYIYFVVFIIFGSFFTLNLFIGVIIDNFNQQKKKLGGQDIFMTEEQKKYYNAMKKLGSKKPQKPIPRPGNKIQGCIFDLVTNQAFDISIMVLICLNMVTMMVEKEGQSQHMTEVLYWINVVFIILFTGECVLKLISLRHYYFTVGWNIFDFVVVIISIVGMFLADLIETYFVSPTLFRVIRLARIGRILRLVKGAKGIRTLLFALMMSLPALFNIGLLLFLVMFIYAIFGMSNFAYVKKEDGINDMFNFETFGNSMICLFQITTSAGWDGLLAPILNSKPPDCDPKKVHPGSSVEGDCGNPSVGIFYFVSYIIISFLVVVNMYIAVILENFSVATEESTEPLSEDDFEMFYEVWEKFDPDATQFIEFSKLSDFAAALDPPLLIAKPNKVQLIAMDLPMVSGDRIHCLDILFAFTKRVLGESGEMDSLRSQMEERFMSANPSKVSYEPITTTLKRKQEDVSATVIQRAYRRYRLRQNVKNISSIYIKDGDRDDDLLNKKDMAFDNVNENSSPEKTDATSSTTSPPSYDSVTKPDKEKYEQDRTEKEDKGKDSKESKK

| IC50 [nM] | Structure (SMILES) |
| --- | --- |
| 14 | CNC(=O)N(c1ccc(S(=O)(=O)Nc2ccon2)cn1)c1cc(Cl)c(-c2cc(Cl)cc(OC)c2)cc1OC [Example 1-32, 6-((2,3′-dichloro-5,5′-dimethoxy-4-biphenylyl)(methylcarbamoyl)amino)-N-3-isoxazolyl-3-pyridinesulfonamide] |
| 43 | CNC(=O)N(c1ccc(S(=O)(=O)Nc2ccon2)cn1)c1cc(Cl)c(-c2ccc(Cl)c(OC)c2)cc1OC [Example 1-33, 6-((2,4′-dichloro-3′,5-dimethoxy-4-biphenylyl)(methylcarbamoyl)amino)-N-3-isoxazolyl-3-pyridinesulfonamide] |
| 27 | CNC(=O)N(c1ccc(S(=O)(=O)Nc2ccon2)cn1)c1cc(Cl)c(-c2cc(Cl)ccc2C)cc1OC [Example 1-34, 6-((2,5′-dichloro-5-methoxy-2′-methyl-4-biphenylyl)(methylcarbamoyl)amino)-N-3-isoxazolyl-3-pyridinesulfonamide] |
| 185 | CNC(=O)N(c1ccc(S(=O)(=O)Nc2ccon2)cn1)c1cc(F)c(-c2ccc(Cl)c(OC)c2)cc1OC [Example 1-35, 6-((4′-chloro-2-fluoro-3′,5-dimethoxy-4-biphenylyl)(methylcarbamoyl)amino)-N-3-isoxazolyl-3-pyridinesulfonamide] |
| 11 | CNC(=O)N(c1ccc(S(=O)(=O)Nc2ccon2)cn1)c1cc(Cl)c(-c2cc(OC)cc(C(F)(F)F)c2)cc1OC [Example 1-36, 6-((2-chloro-3′,5-dimethoxy-5′-(trifluoromethyl)-4-biphenylyl)(methylcarbamoyl)amino)-N-3-isoxazolyl-3-pyridinesulfonamide] |
| 11 | CNC(=O)N(c1ccc(S(=O)(=O)Nc2ccon2)cn1)c1cc(Cl)c(-c2cccc(OCC(F)(F)F)c2)cc1OC [Example 1-37, 6-((2-chloro-5-methoxy-3′-(2,2,2-trifluoroethoxy)-4-biphenylyl)(methylcarbamoyl)amino)-N-3-isoxazolyl-3-pyridinesulfonamide] |
| 21 | CNC(=O)N(c1ccc(S(=O)(=O)Nc2ccon2)cn1)c1cc(Cl)c(-c2cccc(C3CC3)c2)cc1OC [Example 1-38, 6-((2-chloro-3′-cyclopropyl-5-methoxy-4-biphenylyl)(methylcarbamoyl)amino)-N-3-isoxazolyl-3-pyridinesulfonamide] |
| 11 | CNC(=O)N(c1ccc(S(=O)(=O)Nc2ccon2)cn1)c1cc(Cl)c(-c2cccc(OC(F)(F)F)c2)cc1OC [Example 1-39, 6-((2-chloro-5-methoxy-3′-(trifluoromethoxy)-4-biphenylyl)(methylcarbamoyl)amino)-N-3-isoxazolyl-3-pyridinesulfonamide] |
| 32 | CNC(=O)N(c1ccc(S(=O)(=O)Nc2ccon2)cn1)c1cc(Cl)c(-c2cc(C(F)(F)F)cnc2OC)cc1OC [Example 1-40, 6-((5-chloro-2-methoxy-4-(2-methoxy-5-(trifluoromethyl)-3-pyridinyl)phenyl)(methylcarbamoyl)amino)-N-3-isoxazolyl-3-pyridinesulfonamide] |
| 166 | CNC(=O)N(c1ccc(S(=O)(=O)Nc2ccon2)cn1)c1cc(Cl)c(-c2cc(Cl)cnc2OC)cc1OC [Example 1-41, 6-((5-chloro-4-(5-chloro-2-methoxy-3-pyridinyl)-2-methoxyphenyl)(methylcarbamoyl)amino)-N-3-isoxazolyl-3-pyridinesulfonamide] |
| 29 | CNC(=O)N(c1ccc(S(=O)(=O)Nc2ccon2)cn1)c1cc(Cl)c(-c2cc(OC)nc(C(F)(F)F)c2)cc1OC [Example 1-42, 6-((5-chloro-2-methoxy-4-(2-methoxy-6-(trifluoromethyl)-4-pyridinyl)phenyl)(methylcarbamoyl)amino)-N-3-isoxazolyl-3-pyridinesulfonamide] |
| 131 | CNC(=O)N(c1ccc(S(=O)(=O)Nc2ccon2)cn1)c1cc(Cl)c(-c2ccnc(C(F)(F)F)c2)cc1OC [Example 1-43, 6-((5-chloro-2-methoxy-4-(2-(trifluoromethyl)-4-pyridinyl)phenyl)(methylcarbamoyl)amino)-N-3-isoxazolyl-3-pyridinesulfonamide] |
| 125 | CNC(=O)N(c1ccc(S(=O)(=O)Nc2ccon2)cn1)c1cc(Cl)c(-c2ccc(F)cc2)cc1OC [Example 1-44, 6-((2-chloro-4′-fluoro-5-methoxy-4-biphenylyl)(methylcarbamoyl)amino)-N-3-isoxazolyl-3-pyridinesulfonamide] |
| 65 | CNC(=O)N(c1ccc(S(=O)(=O)Nc2ccon2)cn1)c1cc(Cl)c(-c2ccc(C(F)(F)F)cc2)cc1OC [Example 1-45, 6-((2-chloro-5-methoxy-4′-(trifluoromethyl)-4-biphenylyl)(methylcarbamoyl)amino)-N-3-isoxazolyl-3-pyridinesulfonamide] |
| 46 | CNC(=O)N(c1ccc(S(=O)(=O)Nc2ccon2)cn1)c1cc(Cl)c(-c2ccc(C(F)(F)F)c(OC)c2)cc1OC [Example 1-46, 6-((2-chloro-3′,5-dimethoxy-4′-(trifluoromethyl)-4-biphenylyl)(methylcarbamoyl)amino)-N-3-isoxazolyl-3-pyridinesulfonamide] |
| 72 | CNC(=O)N(c1ccc(S(=O)(=O)Nc2ccon2)cn1)c1cc(Cl)c(-c2cccc(OC(F)F)c2)cc1OC [Example 1-47, 6-((2-chloro-3′-(difluoromethoxy)-5-methoxy-4-biphenylyl)(methylcarbamoyl)amino)-N-3-isoxazolyl-3-pyridinesulfonamide] |
| 71 | CNC(=O)N(c1ccc(S(=O)(=O)Nc2ccon2)cn1)c1cc(Cl)c(-c2cccc(OC(C)C)c2)cc1OC [Example 1-48, 6-((2-chloro-5-methoxy-3′-(1-methylethoxy)-4-biphenylyl)(methylcarbamoyl)amino)-N-3-isoxazolyl-3-pyridinesulfonamide] |
| 28 | CNC(=O)N(c1ccc(S(=O)(=O)Nc2ccon2)cn1)c1cc(Cl)c(-c2cc(F)cc(C(F)(F)F)c2)cc1OC [Example 1-49, 6-((2-chloro-3′-fluoro-5-methoxy-5′-(trifluoromethyl)-4-biphenylyl)(methylcarbamoyl)amino)-N-3-isoxazolyl-3-pyridinesulfonamide] |
| 49 | CNC(=O)N(c1ccc(S(=O)(=O)Nc2ccon2)cn1)c1cc(Cl)c(-c2cc(C)c(F)c(OC)c2)cc1OC [Example 1-50, 6-((2-chloro-4′-fluoro-3′,5-dimethoxy-5′-methyl-4-biphenylyl)(methylcarbamoyl)amino)-N-3-isoxazolyl-3-pyridinesulfonamide] |
| 9 | CNC(=O)N(c1ccc(S(=O)(=O)Nc2ccon2)cn1)c1cc(Cl)c(-c2cc(OC)cc(OC(F)(F)F)c2)cc1OC [Example 1-51, 6-((2-chloro-3′,5-dimethoxy-5′-(trifluoromethoxy)-4-biphenylyl)(methylcarbamoyl)amino)-N-3-isoxazolyl-3-pyridinesulfonamide] |
| 31 | CNC(=O)N(c1ccc(S(=O)(=O)Nc2ccon2)cn1)c1cc(Cl)c(-c2cc(F)c(F)c(F)c2)cc1OC [Example 1-52, 6-((2-chloro-3′,4′,5′-trifluoro-5-methoxy-4-biphenylyl)(methylcarbamoyl)amino)-N-3-isoxazolyl-3-pyridinesulfonamide] |
| 48 | CNC(=O)N(c1ccc(S(=O)(=O)Nc2ccon2)cn1)c1cc(Cl)c(-c2cc(Cl)cc(C#N)c2)cc1OC [Example 1-53, 6-((2,3′-dichloro-5′-cyano-5-methoxy-4-biphenylyl)(methylcarbamoyl)amino)-N-3-isoxazolyl-3-pyridinesulfonamide] |
| 52 | CNC(=O)N(c1ccc(S(=O)(=O)Nc2ccon2)cn1)c1cc(Cl)c(-c2ccc(Cl)c(C#N)c2)cc1OC [Example 1-54, 6-((2,4′-dichloro-3′-cyano-5-methoxy-4-biphenylyl)(methylcarbamoyl)amino)-N-3-isoxazolyl-3-pyridinesulfonamide] |
| 17 | CNC(=O)N(c1ccc(S(=O)(=O)Nc2ccon2)cn1)c1cc(Cl)c(-c2cc(C(F)(F)F)ccc2F)cc1OC [Example 1-55, 6-((2-chloro-2′-fluoro-5-methoxy-5′-(trifluoromethyl)-4-biphenylyl)(methylcarbamoyl)amino)-N-3-isoxazolyl-3-pyridinesulfonamide] |
| 19 | CNC(=O)N(c1ccc(S(=O)(=O)Nc2ccon2)cn1)c1cc(Cl)c(-c2cc(OC(F)(F)F)ccc2OC)cc1OC [Example 1-56, 6-((2-chloro-2′,5-dimethoxy-5′-(trifluoromethoxy)-4-biphenylyl)(methylcarbamoyl)amino)-N-3-isoxazolyl-3-pyridinesulfonamide] |
| 24 | CNC(=O)N(c1ccc(S(=O)(=O)Nc2ccon2)cn1)c1cc(Cl)c(-c2ccc(F)c(OCC(F)(F)F)c2)cc1OC [Example 1-57, 6-((2-chloro-4′-fluoro-5-methoxy-3′-(2,2,2-trifluoroethoxy)-4-biphenylyl)(methylcarbamoyl)amino)-N-3-isoxazolyl-3-pyridinesulfonamide] |
| 3020 | CNC(=O)N(c1ccc(S(=O)(=O)Nc2ccon2)cn1)c1cc(Cl)c(C2CC2)cc1OC [Example 1-59, 6-((5-chloro-4-cyclopropyl-2-methoxyphenyl)(methylcarbamoyl)amino)-N-3-isoxazolyl-3-pyridinesulfonamide] |
| 19 | CNC(=O)N(c1ccc(S(=O)(=O)Nc2ccon2)cn1)c1cc(Cl)c(-c2ccc(F)c(Cl)c2)cc1OC [Example 1-60, 6-((2,3′-dichloro-4′-fluoro-5-methoxy-4-biphenylyl)(methylcarbamoyl)amino)-N-3-isoxazolyl-3-pyridinesulfonamide] |
| 20 | CNC(=O)N(c1ccc(S(=O)(=O)Nc2ccon2)cn1)c1cc(Cl)c(-c2ccc(C)c(Cl)c2)cc1OC [Example 1-61, 6-((2,3′-dichloro-5-methoxy-4′-methyl-4-biphenylyl)(methylcarbamoyl)amino)-N-3-isoxazolyl-3-pyridinesulfonamide] |
